Here are results for 1 molecule from patent US20060058374A1, “Urotensin II receptor agents” (priority 2002, published 2006).

One series has as its system male NSA mice. In words: Locomotor activity in mice after i.v. injection. The series is classed as in vivo. As for the experimental part: The test compound of Formula III was tested at 10 mg/kg, i.v. in male NSA mice. Locomotor activity was measured for 15 min following injection. The locomotor activity was decreased relative to sham injected animals. Within a few minutes into the session, the mice sat quietly in a corner of the chamber in a normal posture.
Following the initial experiment, a dose-response curves using 1, 3, and 10 mg/kg, i.v. were conducted. The effects of 10 mg/kg the test compound of Formula III were replicated.

The next series addresses T1, Serotonin 5HT-1E (Homo sapiens, UniProt P28566).
T1 construct: expressed in transfected cells; host or cells: NIH3T3
In words: R-SAT assay, Serotonin 5HT-1E. Format: cell-based. The settings on record: percent maximal activation relative to control compound. Here is the method: (§1) The test compound of Formula III was screened according to a modification of the method described in U.S. Pat. No. 5,912,312. The method, herein referred to as Method 1, consists of the following:
(§2) Receptor Selection and Amplification (R-SAT) Assays.
(§3) R-SAT assays were performed with minor modifications from that previously described (6). Briefly, NIH3T3 cells were grown in tissue culture treated rollerbottles to 40-50% confluence. Cells were transfected for 12-16 hours with plasmid DNAs using superfect (Qiagen Inc.) as per manufacture's protocols. R-SAT's were generally performed with 10 μg/rollerbottle of receptor and 50 μg/rollerbottle of Beta-galactosidase plasmid DNA. All receptor and G-protein constructs used were in the PSI mammalian expression vector (Promega Inc.). The transfected cells were then trypsinized and frozen in DMEM containing 10% DMSO. Frozen cells were later thawed, plated at 10,000-40,000 cells per well of a 96 ½ area plate that contained drug. […] Media was then removed from the plates and marker gene activity was measured by the addition of the beta-galactosidase substrate ONPG (in PBS with 5% NP-40). The resulting colorimetric reaction was measured in a spectrophotometric plate reader (Titertek Inc.) at […].
(§4) EC50, IC50 and Ki are presented as the negative of the calculated potency in Molar.

The next series concerns the target T2, Serotonin 5HT6 (Homo sapiens, UniProt P50406).
T2 construct: expressed in transfected cells; host or cells: NIH3T3
In words: R-SAT assay, Serotonin 5HT6. The series is classed as cell-based. The conditions noted are these: percent maximal activation relative to control compound. Here is the method: as §1, §2, §3, §4

For a further series, the target named is T3, Serotonin 5HT-1A (Homo sapiens, UniProt P08908).
T3 construct: expressed in transfected cells; host or cells: NIH3T3
Nature of the series: R-SAT assay, Serotonin 5HT-1A. Format: cell-based. The settings on record: competitive antagonist mode; percent maximal inhibition relative to control standard compound. As for the experimental part:
as §1, §2, §3, §4

In another series the target is T4, SST2 (Homo sapiens, UniProt P30874).
T4 construct: expressed in transfected cells; host or cells: NIH3T3
In words: R-SAT assay, SST2. Format: cell-based. The settings on record: percent maximal activation relative to control compound. As for the experimental part: as §1, §2, §3, §4

A further series deals with T5, SST3 (Homo sapiens, UniProt P32745).
T5 construct: expressed in transfected cells; host or cells: NIH3T3
Nature of the series: R-SAT assay, SST3. Format: cell-based. The conditions noted are these: percent maximal activation relative to control compound. Here is the method: as §1, §2, §3, §4

In the next series the target is T6, Serotonin 5HT2a (Homo sapiens, UniProt P28223).
T6 construct: expressed in transfected cells; host or cells: NIH3T3
In words: R-SAT assay, Serotonin 5HT2a. The series is classed as cell-based. As for the experimental part: as §1, §2, §3, §4

For the next series, the target named is T7, urotensin II receptor (Homo sapiens, UniProt Q9UKP6).
T7 construct: expressed in transfected cells; host or cells: NIH3T3
T7 sequence (Q9UKP6 1-389): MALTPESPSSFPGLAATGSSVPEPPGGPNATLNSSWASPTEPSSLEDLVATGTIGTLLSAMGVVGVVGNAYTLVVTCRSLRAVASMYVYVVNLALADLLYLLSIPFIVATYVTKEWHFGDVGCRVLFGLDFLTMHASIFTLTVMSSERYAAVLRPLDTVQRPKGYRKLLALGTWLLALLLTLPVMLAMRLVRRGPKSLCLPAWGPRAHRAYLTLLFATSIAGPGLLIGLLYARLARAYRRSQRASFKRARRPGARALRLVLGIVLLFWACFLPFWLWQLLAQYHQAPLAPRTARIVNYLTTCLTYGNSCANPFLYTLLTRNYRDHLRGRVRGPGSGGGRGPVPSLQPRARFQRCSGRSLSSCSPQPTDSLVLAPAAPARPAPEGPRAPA
Nature of the series: R-SAT assay, Urotensin II receptor. Format: cell-based. As for the experimental part:
as §1, §2
R-SAT assays were performed with minor modifications from that previously described (6). Briefly, NIH3T3 cells were grown in tissue culture treated rollerbottles to 40-50% confluence. Cells were transfected for 12-16 hours with plasmid DNAs using superfect (Qiagen Inc.) as per manufacture's protocols. R-SAT's were generally performed with 10 μg/rollerbottle of receptor and 50 μg/rollerbottle of Beta-galactosidase plasmid DNA. All receptor and G-protein constructs used were in the PSI mammalian expression vector (Promega Inc.). The transfected cells were then trypsinized and frozen in DMEM containing 10% DMSO. Frozen cells were later thawed, plated at 10,000-40,000 cells per well of a 96 ½ area plate that contained drug. Cells were then grown in a humidified atmosphere with 5% ambient CO2 for five days. Media was then removed from the plates and marker gene activity was measured by the addition of the beta-galactosidase substrate ONPG (in PBS with 5% NP-40). The resulting colorimetric reaction was measured in a spectrophotometric plate reader (Titertek Inc.) at […].
as §4

[1] abbreviates: percent maximal activation relative to control compound.

Molecules are shown by their SMILES. pEC50: −log10 of the molar value. Like-named read-outs stand apart in the source and are kept apart here.

T6 sequence (P28223 whole entry): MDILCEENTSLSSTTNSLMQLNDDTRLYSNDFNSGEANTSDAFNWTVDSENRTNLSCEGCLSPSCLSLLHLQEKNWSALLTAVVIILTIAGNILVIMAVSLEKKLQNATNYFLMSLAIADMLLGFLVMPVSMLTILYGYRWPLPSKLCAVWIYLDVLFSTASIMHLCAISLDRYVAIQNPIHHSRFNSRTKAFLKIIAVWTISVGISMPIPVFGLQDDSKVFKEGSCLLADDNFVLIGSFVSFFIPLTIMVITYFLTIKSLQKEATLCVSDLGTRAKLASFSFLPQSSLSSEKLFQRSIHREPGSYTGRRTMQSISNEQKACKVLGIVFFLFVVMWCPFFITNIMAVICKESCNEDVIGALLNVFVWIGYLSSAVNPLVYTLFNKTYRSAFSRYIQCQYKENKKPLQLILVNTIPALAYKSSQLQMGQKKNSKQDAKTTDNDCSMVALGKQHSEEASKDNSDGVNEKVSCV
T3 sequence (P08908 whole entry): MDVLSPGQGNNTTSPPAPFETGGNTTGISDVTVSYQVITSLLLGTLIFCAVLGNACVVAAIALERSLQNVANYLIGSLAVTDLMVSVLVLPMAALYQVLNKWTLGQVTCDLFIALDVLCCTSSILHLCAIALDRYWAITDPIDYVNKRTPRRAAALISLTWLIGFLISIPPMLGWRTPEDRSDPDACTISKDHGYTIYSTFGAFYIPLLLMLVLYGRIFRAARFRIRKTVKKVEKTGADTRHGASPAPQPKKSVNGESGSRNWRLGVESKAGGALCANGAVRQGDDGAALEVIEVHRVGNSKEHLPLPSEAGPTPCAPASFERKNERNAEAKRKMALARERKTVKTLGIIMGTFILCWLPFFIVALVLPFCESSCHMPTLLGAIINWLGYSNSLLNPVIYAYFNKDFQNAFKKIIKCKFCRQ
T4 sequence (P30874 whole entry, species assumed): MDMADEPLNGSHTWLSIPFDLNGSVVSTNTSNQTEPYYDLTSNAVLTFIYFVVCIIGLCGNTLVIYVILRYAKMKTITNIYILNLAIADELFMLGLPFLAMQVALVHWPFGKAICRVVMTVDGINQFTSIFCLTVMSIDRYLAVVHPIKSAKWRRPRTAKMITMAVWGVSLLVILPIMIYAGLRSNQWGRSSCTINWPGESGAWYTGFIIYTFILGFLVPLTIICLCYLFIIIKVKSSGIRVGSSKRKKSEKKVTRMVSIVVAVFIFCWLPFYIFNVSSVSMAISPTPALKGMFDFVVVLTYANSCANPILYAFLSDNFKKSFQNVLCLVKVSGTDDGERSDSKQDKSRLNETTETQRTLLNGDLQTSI
T1 sequence (P28566 whole entry): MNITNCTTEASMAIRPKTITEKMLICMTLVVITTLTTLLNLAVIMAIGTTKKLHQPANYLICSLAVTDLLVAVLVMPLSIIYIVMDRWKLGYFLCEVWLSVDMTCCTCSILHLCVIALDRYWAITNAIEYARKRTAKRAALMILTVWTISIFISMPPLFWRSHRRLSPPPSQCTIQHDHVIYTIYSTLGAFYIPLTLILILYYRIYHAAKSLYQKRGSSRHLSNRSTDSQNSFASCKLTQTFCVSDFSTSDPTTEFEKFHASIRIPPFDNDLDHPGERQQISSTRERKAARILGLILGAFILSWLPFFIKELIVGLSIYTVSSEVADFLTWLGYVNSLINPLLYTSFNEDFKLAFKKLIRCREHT
T2 sequence (P50406 whole entry): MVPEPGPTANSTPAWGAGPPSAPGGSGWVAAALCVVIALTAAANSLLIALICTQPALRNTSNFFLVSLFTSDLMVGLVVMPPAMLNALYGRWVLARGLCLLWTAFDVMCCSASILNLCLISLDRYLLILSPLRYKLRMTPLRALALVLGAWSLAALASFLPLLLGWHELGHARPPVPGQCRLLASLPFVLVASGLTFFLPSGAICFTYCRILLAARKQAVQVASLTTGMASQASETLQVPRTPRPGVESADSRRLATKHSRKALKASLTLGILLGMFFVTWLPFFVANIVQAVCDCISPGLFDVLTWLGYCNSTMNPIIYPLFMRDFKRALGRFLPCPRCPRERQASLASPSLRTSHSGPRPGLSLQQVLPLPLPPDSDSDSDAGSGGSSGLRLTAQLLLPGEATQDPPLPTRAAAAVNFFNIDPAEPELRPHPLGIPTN
T5 sequence (P32745 whole entry, species assumed): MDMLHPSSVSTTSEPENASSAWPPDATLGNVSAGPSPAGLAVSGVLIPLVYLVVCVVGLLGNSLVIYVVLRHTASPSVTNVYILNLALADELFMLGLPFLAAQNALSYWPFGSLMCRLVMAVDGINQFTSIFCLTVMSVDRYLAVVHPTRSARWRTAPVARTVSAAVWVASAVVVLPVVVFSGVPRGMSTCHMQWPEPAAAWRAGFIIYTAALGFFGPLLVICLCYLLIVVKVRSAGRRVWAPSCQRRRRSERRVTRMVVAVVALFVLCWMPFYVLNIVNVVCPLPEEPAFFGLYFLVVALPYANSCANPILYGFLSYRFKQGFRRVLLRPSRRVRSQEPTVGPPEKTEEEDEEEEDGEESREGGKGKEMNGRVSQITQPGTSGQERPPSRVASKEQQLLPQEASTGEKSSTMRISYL

In the case of `CN(C)CCC1(c2ccc(Cl)cc2)Cc2ccccc2C(=O)O1` (centres unmarked) [Formula III], the locomotor activity entry in the series on male NSA mice (10 mg/kg i.v., male NSA mice, 15 min following injection, relative to sham injected animals) was “decreased”. In addition, the “behavioural observation (responsiveness, appearance)” value in the series on male NSA mice (10 mg/kg i.v., male NSA mice, during the session) was “responsive to sound and touch and otherwise appeared normal”. For the same molecule, the “effects on locomotor activity in dose-response experiment” value in the series with male NSA mice (dose-response 1, 3 and 10 mg/kg i.v., result stated for 10 mg/kg) is given as “replicated”. Besides, the “Agonist % Eff” value on Serotonin 5HT-1E was determined as 19%; at Serotonin 5HT6, 0%; at SST2 it was 0%; on SST3 it was 0%; on Serotonin 5HT2a (setting [1]), 58%; on urotensin II receptor (setting [1]), 132%. At Serotonin 5HT-1A, the “Competitive Antagonist % Inh” value is reported as 0%. Further, on Serotonin 5HT2a (inverse agonist mode, percent maximal inhibition relative to repression of basal activity by a control standard compound), the “Inverse Agonist % Inh” value is 11.9%. In addition, the EC50 on urotensin II receptor (agonist mode, negative of the calculated potency in Molar, read-out: Agonist EC50 (converted)) was 0.1 µM. Besides, on urotensin II receptor (compared with the response evoked by the urotensin II peptide), the maximal biological response entry is recorded as “equal to or greater than the response evoked by the urotensin II peptide”. Also, the pEC50 on urotensin II receptor (functional potency, Example 1 (Method 1), read-out: EC50 for the urotensin II receptor) was 6.70.
